In ChEMBL document CHEMBL1201861, “Genomics of Drug Sensitity in Cancer screening data, Wellcome Trust Sanger Institute”:

How the values were obtained:
Experiment in all cases: cells
CaR-1 = format: functional, cell-based, Homo sapiens; conditions: Homo sapiens, CaR-1;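 further: growth inhibition of human CaR-1 cancer cells, read out with a cell viability assay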
Description: SANGER: Inhibition of human CaR-1 cell growth in a cell viability assay.

D-502MG = format: functional, cell-based, Homo sapiens; conditions: Homo sapiens, D-502MG
Description: SANGER: Inhibition of human D-502MG cell growth in a cell viability assay.

DOK = format: functional, cell-based, Homo sapiens; conditions: Homo sapiens, DOK;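 further: cell viability assay read-out, values reflect inhibition of cell growth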
Description: SANGER: Inhibition of human DOK cell growth in a cell viability assay.

ESS-1 = format: functional, cell-based, Homo sapiens; conditions: Homo sapiens, ESS-1;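 further: growth inhibition of human ESS-1 cells, read out by a cell viability assay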
Description: SANGER: Inhibition of human ESS-1 cell growth in a cell viability assay.

EW-18 = format: functional, cell-based; conditions: Homo sapiens;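 further: growth inhibition of EW-18 cells, read out by a cell viability assay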
Description: SANGER: Inhibition of human EW-18 cell growth in a cell viability assay.

EW-3 = format: functional, cell-based; conditions: Homo sapiens;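 further: cell viability assay read-out, IC50 reflects inhibition of growth of the EW-3 cells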
Description: SANGER: Inhibition of human EW-3 cell growth in a cell viability assay.

HCC1954 = format: functional, cell-based, Homo sapiens; conditions: Homo sapiens, HCC1954;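 further: growth inhibition of human HCC1954 cells, read out with a cell viability assay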
Description: SANGER: Inhibition of human HCC1954 cell growth in a cell viability assay.

HCE-4 = format: functional, cell-based, Homo sapiens; conditions: Homo sapiens, HCE-4;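 further: cell viability assay measuring inhibition of growth in the human HCE-4 cell line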
Description: SANGER: Inhibition of human HCE-4 cell growth in a cell viability assay.

HMV-2 cell line = format: functional, cell-based, Homo sapiens; conditions: Homo sapiens, HMV-2;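 further: growth inhibition of HMV-II cells, read out with a cell viability assay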
Description: SANGER: Inhibition of human HMV-II cell growth in a cell viability assay.

JEG-3 = format: functional, cell-based, Homo sapiens; conditions: Homo sapiens, JEG-3;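 further: growth inhibition of human JEG-3 cells, read out with a cell viability assay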
Description: SANGER: Inhibition of human JEG-3 cell growth in a cell viability assay.

KARPAS-45 = format: functional, cell-based; conditions: Homo sapiens;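 further: inhibition of cell line growth, read out through a viability assay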
Description: SANGER: Inhibition of human KARPAS-45 cell growth in a cell viability assay.

KE-37 = format: functional, cell-based; conditions: Homo sapiens;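 further: growth inhibition of KE-37 cells, read out with a cell viability assay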
Description: SANGER: Inhibition of human KE-37 cell growth in a cell viability assay.

KLE = format: functional, cell-based, Homo sapiens; conditions: Homo sapiens, KLE;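 further: growth inhibition of human KLE cells, read out with a cell viability assay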
Description: SANGER: Inhibition of human KLE cell growth in a cell viability assay.

KS-1 = format: functional, cell-based, Homo sapiens; conditions: Homo sapiens, KS-1;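 further: growth inhibition of KS-1 cells, read out with a cell viability assay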
Description: SANGER: Inhibition of human KS-1 cell growth in a cell viability assay.

KU812 cell line = format: functional, cell-based; conditions: Homo sapiens;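 further: growth inhibition of KU812 cells, read out with a cell viability assay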
Description: SANGER: Inhibition of human KU812 cell growth in a cell viability assay.

KYSE-180 = format: functional, cell-based, Homo sapiens; conditions: Homo sapiens, KYSE-180;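 further: growth inhibition of KYSE-180 cells, read out with a cell viability assay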
Description: SANGER: Inhibition of human KYSE-180 cell growth in a cell viability assay.

LoVo = format: functional, cell-based; conditions: Homo sapiens;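 further: growth inhibition of human LoVo cells, read out with a cell viability assay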
Description: SANGER: Inhibition of human LoVo cell growth in a cell viability assay.

M059J = format: functional, cell-based, Homo sapiens; conditions: Homo sapiens, M059J;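 further: growth inhibition of M059J cells, read out with a cell viability assay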
Description: SANGER: Inhibition of human M059J cell growth in a cell viability assay.

M14 = format: functional, cell-based, Homo sapiens; conditions: Homo sapiens, M14;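 further: growth inhibition of M14 cells, read out with a cell viability assay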
Description: SANGER: Inhibition of human M14 cell growth in a cell viability assay.

MOLT-16 = format: functional, cell-based; conditions: Homo sapiens;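 further: growth inhibition of human MOLT-16 cells, read out with a cell viability assay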
Description: SANGER: Inhibition of human MOLT-16 cell growth in a cell viability assay.

MeWo = format: functional, cell-based, Homo sapiens; conditions: Homo sapiens, MeWo;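 further: growth inhibition of MeWo cells, determined by a cell viability readout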
Description: SANGER: Inhibition of human Mewo cell growth in a cell viability assay.

NCI-H1355 = format: functional, cell-based, Homo sapiens; conditions: Homo sapiens, NCI-H1355;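 further: growth inhibition of human NCI-H1355 cells, read out by a cell viability assay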
Description: SANGER: Inhibition of human NCI-H1355 cell growth in a cell viability assay.

NCI-H1755 = format: functional, cell-based, Homo sapiens; conditions: Homo sapiens, NCI-H1755;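 further: cell viability readout used to measure growth inhibition of NCI-H1755 cells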
Description: SANGER: Inhibition of human NCI-H1755 cell growth in a cell viability assay.

NCI-H292 = format: functional, cell-based, Homo sapiens; conditions: Homo sapiens, NCI-H292;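 further: growth inhibition of NCI-H292 cells, read out with a cell viability assay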
Description: SANGER: Inhibition of human NCI-H292 cell growth in a cell viability assay.

NCI-H69 = format: functional, cell-based; conditions: Homo sapiens;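 further: growth inhibition of the cell line, read out with a cell viability assay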
Description: SANGER: Inhibition of human NCI-H69 cell growth in a cell viability assay.

NCI-H82 = format: functional, cell-based; conditions: Homo sapiens;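 further: growth inhibition of NCI-H82 cells, measured with a cell viability readout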
Description: SANGER: Inhibition of human NCI-H82 cell growth in a cell viability assay.

NMC-G1 = format: functional, cell-based, Homo sapiens; conditions: Homo sapiens, NMC-G1;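 further: growth inhibition of the NMC-G1 cell line, measured with a cell viability read-out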
Description: SANGER: Inhibition of human NMC-G1 cell growth in a cell viability assay.

OCUB-M = format: functional, cell-based, Homo sapiens; conditions: Homo sapiens, OCUB-M;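 further: growth inhibition of the cancer cell line, read out through a cell viability assay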
Description: SANGER: Inhibition of human OCUB-M cell growth in a cell viability assay.

OVCAR-4 = format: functional, cell-based, Homo sapiens; conditions: Homo sapiens, OVCAR-4;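 further: growth inhibition of human OVCAR-4 cells, measured with a cell viability assay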
Description: SANGER: Inhibition of human OVCAR-4 cell growth in a cell viability assay.

P30-OHK = format: functional, cell-based; conditions: Homo sapiens;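 further: growth inhibition of the P30-OHK cell line, read out with a cell viability assay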
Description: SANGER: Inhibition of human P30-OHK cell growth in a cell viability assay.

PC-3 = format: functional, cell-based, Homo sapiens; conditions: Homo sapiens, PC-3;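 further: cell viability assay measuring growth inhibition of PC-3 cells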
Description: SANGER: Inhibition of human PC-3 cell growth in a cell viability assay.

RKO = format: functional, cell-based, Homo sapiens; conditions: Homo sapiens, RKO;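 further: growth inhibition of human RKO cells, read out with a cell viability assay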
Description: SANGER: Inhibition of human RKO cell growth in a cell viability assay.

RPMI-8866 = format: functional, cell-based; conditions: Homo sapiens
Description: SANGER: Inhibition of human RPMI-8866 cell growth in a cell viability assay.

S-117 = format: functional, cell-based, Homo sapiens; conditions: Homo sapiens, S-117
Description: SANGER: Inhibition of human S-117 cell growth in a cell viability assay.

SCC-9 = format: functional, cell-based, Homo sapiens; conditions: Homo sapiens, SCC-9;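 further: Read-out is a cell viability assay, with values giving inhibition of cell growth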
Description: SANGER: Inhibition of human SCC-9 cell growth in a cell viability assay.

SF-126 = format: functional, cell-based, Homo sapiens; conditions: Homo sapiens, SF-126;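 further: growth inhibition of human SF126 cells, read out with a cell viability assay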
Description: SANGER: Inhibition of human SF126 cell growth in a cell viability assay.

SK-LU-1 = format: functional, cell-based, Homo sapiens; conditions: Homo sapiens, SK-LU-1;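 further: cell viability assay measuring growth inhibition of human SK-LU-1 cells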
Description: SANGER: Inhibition of human SK-LU-1 cell growth in a cell viability assay.

SW-620 = format: functional, cell-based, Homo sapiens; conditions: Homo sapiens, SW-620;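 further: growth inhibition of human SW-620 cells, measured by a cell viability assay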
Description: SANGER: Inhibition of human SW620 cell growth in a cell viability assay.

SW872 = format: functional, cell-based, Homo sapiens; conditions: Homo sapiens, SW872;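 further: growth inhibition of SW872 cells, read out by a viability assay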
Description: SANGER: Inhibition of human SW872 cell growth in a cell viability assay.

SiHa = format: functional, cell-based, Homo sapiens; conditions: Homo sapiens, SiHa;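 further: Viability-based readout of growth inhibition in SiHa cells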
Description: SANGER: Inhibition of human SiHa cell growth in a cell viability assay.

786-0 = format: functional, cell-based, Homo sapiens; conditions: Homo sapiens
Description: SANGER: Inhibition of human 786-0 cell growth in a cell viability assay.

A3-KAW = format: functional, cell-based; conditions: Homo sapiens;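 further: growth inhibition of human A3-KAW cells, read out with a cell viability assay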
Description: SANGER: Inhibition of human A3-KAW cell growth in a cell viability assay.

A388 = format: functional, cell-based, Homo sapiens; conditions: Homo sapiens, A388;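 further: growth inhibition of human A388 cells, read out with a cell viability assay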
Description: SANGER: Inhibition of human A388 cell growth in a cell viability assay.

AN3-CA = format: functional, cell-based; conditions: Homo sapiens;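 further: growth inhibition of human AN3-CA cells measured by a cell viability assay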
Description: SANGER: Inhibition of human AN3-CA cell growth in a cell viability assay.

AU565 = format: functional, cell-based, Homo sapiens; conditions: Homo sapiens, AU565;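 further: cell viability assay measuring growth inhibition of human AU565 cells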
Description: SANGER: Inhibition of human AU565 cell growth in a cell viability assay.

BFTC-905 = format: functional, cell-based, Homo sapiens; conditions: Homo sapiens, BFTC-905
Description: SANGER: Inhibition of human BFTC-905 cell growth in a cell viability assay.

C2BBe1 = format: functional, cell-based, Homo sapiens; conditions: Homo sapiens, C2BBe1;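 further: growth inhibition of C2BBe1 cells, read out through a viability assay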
Description: SANGER: Inhibition of human C2BBe1 cell growth in a cell viability assay.

C8166 = format: functional, cell-based; conditions: Homo sapiens;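 further: growth inhibition of human C8166 cells measured by a cell viability assay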
Description: SANGER: Inhibition of human C8166 cell growth in a cell viability assay.

CAL-51 = format: functional, cell-based, Homo sapiens; conditions: Homo sapiens, CAL-51;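 further: human CAL-51 cell line, growth inhibition read out via a cell viability assay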
Description: SANGER: Inhibition of human CAL-51 cell growth in a cell viability assay.

TGW = format: functional, cell-based; conditions: Homo sapiens;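 further: growth inhibition of human TGW cells, read out with a cell viability assay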
Description: SANGER: Inhibition of human TGW cell growth in a cell viability assay.

U2OS = format: functional, cell-based, Homo sapiens, U-2-OS; conditions: Homo sapiens, U2OS;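 further: growth inhibition of human U-2-OS cells, determined with a cell viability assay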
Description: SANGER: Inhibition of human U-2-OS cell growth in a cell viability assay.

VM-CUB-1 = format: functional, cell-based; conditions: Homo sapiens;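 further: cell viability assay measuring growth inhibition of the human VM-CUB-1 cell line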
Description: SANGER: Inhibition of human VM-CUB-1 cell growth in a cell viability assay.

CAPAN-1 = format: functional, cell-based, Homo sapiens; conditions: Homo sapiens, CAPAN-1;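 further: growth suppression of CAPAN-1 cells, read out by a cell viability assay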
Description: SANGER: Inhibition of human CAPAN-1 cell growth in a cell viability assay.

COLO-668 = format: functional, cell-based, Homo sapiens; conditions: Homo sapiens, COLO-668
Description: SANGER: Inhibition of human COLO-668 cell growth in a cell viability assay.

Measured: IC50

Cc1cnc(-c2cnc(NCCNc3ccc(C#N)cn3)nc2-c2ccc(Cl)cc2Cl)[nH]1 [LADUVIGLUSIB]
921 nM: S-117
> 2.56 µM: LoVo | RKO
1730 nM: KYSE-180
> 2560 nM: all other assays above

C[C@]1(O)C[C@@H](c2nc(-c3ccc4ccc(-c5ccccc5)nc4c3)c3c(N)nccn32)C1 [LINSITINIB]
468 nM: BFTC-905
181 nM: NCI-H1355
88.5 nM: HMV-2 cell line
> 2.56 µM: LoVo | RKO
847 nM: COLO-668
38.4 nM: KS-1
270 nM: EW-18
2100 nM: EW-3
556 nM: DOK
> 2560 nM: all other assays above

COc1ccc(C2=N[C@@H](c3ccc(Cl)cc3)[C@@H](c3ccc(Cl)cc3)N2C(=O)N2CCNC(=O)C2)c(OC(C)C)c1 [NUTLIN-3]
3.54 µM: RKO
2560 nM: RPMI-8866
2910 nM: U2OS
3170 nM: C2BBe1
1790 nM: MOLT-16
3020 nM: KS-1
2620 nM: A3-KAW
2970 nM: D-502MG
6.02 µM: LoVo
3120 nM: NCI-H292
> 8000 nM: all other assays above
